Results taken from patent publication US8709420B2 (GlaxoSmithKline Intellectual Property Limited, priority 2010, dated 2014).
≈ marks a conversion by molar mass, not a printed value. Where “and” joins values, the source holds several entries; their conditions need not be identical. Equal values may be shown once.

Legend:
[1] = system: circulating endothelial progenitor cells (CEPs); test: CEP/CEC flow cytometry in SK-N-BE(2) xenograft model; assay type: in vivo, mouse; conditions: after one week treatment
Method: Approximately 160 μl of mouse blood was collected in K2-EDTA tubes by saphenous vein puncture from animals of the SK-N-BE(2) xenograft model (after one week treatment) and BE(2)-c metastatic model (after one week and four weeks treatment). Blood was immediately stored at 4° C. until analysis. The CEP/CECs were measured by flow cytometry within 48 hrs of blood collection as previously described. CEPs were defined as CD45−, VEGFR-2+, CD117+, and CD13+, while CECs were defined as CD45−, VEGFR-2+, CD117−, and CD13+. The absolute number of CEPs was calculated as the percentage of events collected in CEP enumeration gates multiplied by the total white blood cell (WBC) count.

[2] = previously reported; cited from earlier work
[3] = system: HIF-1 alpha; test: Immunohistochemistry of xenograft tumors, HIF-1 alpha; assay type: in vivo, NOD/SCID mice; conditions: NB12 xenograft model
Method: Formalin fixed tissues were paraffin embedded and sections cut at 7 um. […] The primary antibodies were anti-HIF-1 alpha (#NB100-131, Novus Biologicals, dilution 1:3000), HIF-2 alpha (#NB100-122, Novus Biologicals, dilution 1:100), Oct-4 (#2890S, Cell Signalling, dilution 1:100), von Willebrand factor (#A0082; DakoCytomation, Glostrup, Denmark). After the primary antibody treatment, all the slides were washed three times with PBS and incubated with broad spectrum poly-horse radish peroxidase (HRP) conjugate […] secondary antibody (87-9663, Invitrogen) for 1 h at room temperature. After washing three times with PBS, slides were stained with diaminobenzidine (DAB) and counterstained with hematoxylin. Microscopic images of six fields of high vascular density were digitally captured for vWF-stained slides, while for HIF-1 alpha, HIF-2 alpha and Oct-4 stained slides, the images of six randomly selected areas were captured. The pixel values for stained areas were quantified using ImageJ software. Tumor angiogenesis was quantified as the number of pixels of regions positive for vWF.

[4] = system: Rh4 rhabdomyosarcoma cell line; assay type: cell-based
Method: Materials: The cells were cultured at 37° C. in 5% CO2 in a-MEM (Multicell; Wisent, Inc., St. Bruno, Quebec, Canada) with 10% fetal bovine serum (FBS; Life Technologies, Grand Island, N.Y.) and 1% antibiotic mixture, containing 10000 IU penicillin and 10000 μg/ml streptomycin (Multicell; Wisent, Inc., St. Bruno, Quebec, Canada). Trypsin-EDTA, containing 0.05% trypsin and 0.53 mM EDTA was also purchased from Multicell; Wisent, Inc., St. Bruno, Quebec, Canada.
Procedure: A total of 20,000 cells were plated in each well of 48 well-plates and incubated at 37° C. in 5% CO2. After 48 h, the cells were treated with various concentrations of drugs. After 72 h of treatment, the cell viability was determined by alamar blue assay.

[5] = system: HUVEC; test: In-vitro cytotoxicity, Alamar Blue cell viability; assay type: cell-based; conditions: Homo sapiens, 72 h treatment, read-out: IC50, reduction in viability of HUVEC cells
[6] = system: KHOS xenograft tumor microvasculature; test: Microvessel density by von Willebrand factor staining of KHOS xenografts; assay type: in vivo, NOD/SCID mice; conditions: after 28 days treatment
Method: Procedure: Formalin fixed tissues were paraffin embedded and sections cut at 7 um. […] The primary antibody was von Willebrand factor (#A0082; DakoCytomation, Glostrup, Denmark). After the primary antibody treatment, the slides were washed three times with PBS and incubated with broad spectrum poly-horse radish peroxidase (HRP) conjugate secondary antibody (87-9663, Invitrogen) for 1 h at room temperature. After washing three times with PBS, slides were stained with diaminobenzidine (DAB) and counterstained with hematoxylin. Microscopic images of six fields of high vascular density were digitally captured. The pixel values for stained areas were quantified using ImageJ software. Tumor angiogenesis was quantified as the number of pixels of regions positive for von Willebrand Factor.

[7] = system: BE(2)-c neuroblastoma cell line; test: In-vitro cytotoxicity, Alamar Blue cell viability; assay type: cell-based; conditions: Homo sapiens, topotecan alone, 72 h
Text: (§1) SK-N-BE(2) (MYCN amplified) and SH-SY5Y (non-MYCN amplified neuroblastoma cell lines) were obtained from American Type Culture Collection (ATCC) (Manassas, Va.); BE(2)-c sub-clone of SK-N-BE(2) was obtained from Dr. Michelle Haber (Children's Cancer Institute for Medical Research, Lowry Cancer Research Centre, Randwick, Australia); Human Umbilical Vein Endothelial Cells (HUVECs) were obtained from Dr. Herman Yeger (The Hospital for Sick Children, Toronto, Ontario, Canada) and Tumor Initiating (TIC) cell lines NB12 and NB88, were obtained from Dr. David Kaplan (The Hospital for Sick Children, Toronto, Ontario, Canada). TICs NB12 and NB88 were isolated from the bone marrow metastases of relapsed high-risk neuroblastoma patients. Neuroblastoma cell lines SK-N-BE(2) and SH-SY5Y were grown in alpha-MEM containing 10% fetal bovine serum and 1% antibiotic mixture in humidified atmosphere at 37° C. with 5% CO2. NB12 and NB 88 were cultured as described previously.
(§2) Cell viability was determined by Alamar Blue assay. Alamar blue (10% of total volume was added to each well three hours prior to fluorometric detection). Fluorometric detection was performed using the SPECTRAmax gemini Spectrophotometer at excitation wavelength of 540 nm and emission wavelength of 590 nm.

[8] = system: NB88 tumor initiating cell line; test: In-vitro cytotoxicity, Alamar Blue cell viability; assay type: cell-based; conditions: topotecan alone, 72 h
Text: as §1, §2

[9] = system: NB12 tumor initiating cell line; test: In-vitro cytotoxicity, Alamar Blue cell viability; assay type: cell-based; conditions: topotecan alone, 72 h
Text: as §1, §2

[10] = system: KHOS xenograft; test: KHOS osteosarcoma mouse xenograft model; assay type: in vivo, NOD/SCID mice
[11] = system: circulating endothelial cells (CECs), CEPs, WBC; test: Viable CECs, CEPs and WBC in KHOS osteosarcoma model; assay type: in vivo, NOD/SCID mice; conditions: 21 days treatment
Method: Procedure: Approximately 160 μl of blood was sampled in heparinized microtubes at 21st day of treatment by saphenous vein puncturing. These blood samples were stored at 4° C. until analysis. CEC/CEP measurement was done within 48 h of blood collection by flow cytometry.

For Cc1ccc(Nc2nccc(N(C)c3ccc4c(C)n(C)nc4c3)n2)cc1S(N)(=O)=O [pazopanib, 5-[[4-[(2,3-dimethyl-2H-indazol-6-yl)methylamino]-2-pyrimidinyl]amino]-2-methylbenzenesulfonamide], the “mean values of CEPs compared to control” value [1] is listed as “statistically significant difference”, the “optimal plasma concentration of pazopanib effectiveness” value [2] is listed as “≈ 18 μg/ml and 40 μM” and the HIF-1 alpha expression [3] is listed as “increase”. For the same compound, the “cell viability / cytotoxicity” value [4] was “did not show cytotoxicity”.

With CC[C@@]1(O)C(=O)OCc2c1cc1n(c2=O)Cc2cc3c(CN(C)C)c(O)ccc3nc2-1 [topotecan] the IC50 [5] was 0.00487 µg/mL (≈ 0.0116 µM), the “microvessel densities versus control” value ([6]; LDM TP, TP+PZ) was “significantly lower” and the “microvessel densities versus control” value ([6]; Pulse TP) was “significantly lower”. It also gave an IC50 [7] of 0.0456 µg/mL (≈ 0.108 µM), an IC50 [8] of 0.0039 µg/mL (≈ 0.00925 µM) and an IC50 [9] of 0.0631 µg/mL (≈ 0.15 µM). The tumor growth rate ([10]; 27 days daily oral, LDM topotecan 1.0 mg/kg, combination 1.0 mg/Kg topotecan and 150 mg/Kg pazopanib) was “delayed the tumor growth rate”, the tumor growth rate ([10]; Pulse topotecan 15 mg/Kg, 27 days) was “delayed the tumor growth rate” and the “tumor weights, Pulse versus LDM topotecan” value ([10]; after 27 days treatment) was “No significant differences”. The “CEP, significance versus Pulse” value [11] was “* (* P < 0.05)”, the “WBC, significance versus Pulse” value [11] was “* (* P < 0.05)” and the “White Blood Cell (WBC) levels compared to pulse TP” value [11] was “significantly lower”. For the same compound, the “viable CEP levels compared to pulse TP” value [11] was “significantly lower”, the “levels of viable CECs versus control” value ([11]; LDM TP 1.0 mg/kg, TP+PZ) was “significantly reduced” and the “levels of viable CEPs versus control” value ([11]; LDM TP 1.0 mg/kg, TP+PZ) was “significantly reduced”. The “levels of viable CECs versus control” value ([11]; Pulse TP 15 mg/Kg) was “significantly reduced”, the “levels of viable CEPs versus control” value ([11]; Pulse TP 15 mg/Kg) was “significantly reduced” and the “CEC, significance versus Control” value ([11]; Pulse topotecan 15 mg/Kg) was “* (* P < 0.05)”. For the same compound, the “CEP, significance versus Control” value ([11]; Pulse topotecan 15 mg/Kg) was “* (* P < 0.05)”, the “CEC, significance versus Control” value ([11]; TP (LDM 1.0 mg/kg), TP + PZ) was “** (** P < 0.005)” and the “CEP, significance versus Control” value ([11]; TP (LDM 1.0 mg/kg), TP + PZ) was “** (** P < 0.005)”. The “WBC, significance versus Control” value ([11]; TP (LDM 1.0 mg/kg), TP + PZ) was “* (* P < 0.05)”.
